Molecules are shown by their SMILES.

The first assay deals with T1, HGFR (Homo sapiens, UniProt P08581).
T1 construct: purchased Upstate 14-526
T1 sequence (P08581 974-1390 limits assumed): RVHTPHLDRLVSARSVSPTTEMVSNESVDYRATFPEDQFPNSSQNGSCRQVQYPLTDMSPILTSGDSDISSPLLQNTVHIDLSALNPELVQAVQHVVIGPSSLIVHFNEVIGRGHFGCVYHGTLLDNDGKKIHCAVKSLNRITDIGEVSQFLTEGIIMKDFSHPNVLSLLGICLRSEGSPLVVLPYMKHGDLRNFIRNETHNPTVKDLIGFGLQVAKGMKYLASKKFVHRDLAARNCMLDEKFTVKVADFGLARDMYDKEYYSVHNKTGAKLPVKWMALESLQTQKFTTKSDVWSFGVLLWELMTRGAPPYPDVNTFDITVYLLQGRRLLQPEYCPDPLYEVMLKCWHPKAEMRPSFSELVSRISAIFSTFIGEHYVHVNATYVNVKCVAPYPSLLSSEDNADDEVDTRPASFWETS
As to the kind of experiment: HGFR continuous-coupled spectrophotometric assay. Type of assay: biochemical. The following applies: at 1 pM; Table 6, library procedure 41; read-out: % Inhibition (percent c-MET inhibition).
In the case of `Nc1ncc(C(=O)NCc2cccc(OC(F)F)c2)cc1OCc1c(Cl)cccc1Cl` [Example L-249], the inhibition at 1 pM came to 32%. On the same count and under the same terms, next, `CN(C)C(=O)CN1CCN(C(=O)c2cnc(N)c(OCc3c(Cl)cccc3Cl)c2)CC1` [Example L-262]: 42%; `Nc1ncc(C(=O)N2CCN(CC(=O)N3CCOCC3)CC2)cc1OCc1c(Cl)cccc1Cl` [Example L-211]: 31%. In the case of `Cc1ccc(F)c(CNC(=O)c2cnc(N)c(OCc3c(Cl)cccc3Cl)c2)c1F` [Example L-278], the inhibition at 1 pM was 31%.

On to `Nc1ncc(C(=O)N2CCCC(Cc3ncccn3)C2)cc1OCc1c(Cl)cccc1Cl` [Example L-324], for which the inhibition at 1 pM turned out to be 25%. As to `CC(C)CCNC(=O)C1CC12CCN(C(=O)c1cnc(N)c(OCc3c(Cl)cccc3Cl)c1)CC2` [Example L-338], the inhibition at 1 pM came to 21%.

Still in this assay, the particulars now being: at 1 pM; Table 7, library procedure 42; read-out: % Inhibition (percent c-MET inhibition).
On to `Nc1ncc(-c2ccc(C(=O)N3CCC(N4CCCC4)CC3)cc2)cc1OCc1c(F)ccc(F)c1Cl`, for which the inhibition at 1 pM came out at 50%. For `COc1cc(COc2cc(-c3ccc(C(=O)N4CCC(N5CCCC5)CC4)cc3)cnc2N)cc(OC)c1OC`, the inhibition at 1 pM turned out to be 10%. As to `Cc1ccn2cc(COc3cc(-c4ccc(C(=O)N5CCC(N6CCCC6)CC5)cc4)cnc3N)nc2c1`, the inhibition at 1 pM turned out to be 16%.

In the case of `Nc1ncc(-c2ccc(C(=O)N3CCC(N4CCCC4)CC3)cc2)cc1OCc1nc2ncc(Cl)cc2[nH]1`, the inhibition at 1 pM stood at 16%.

For the compound `Nc1ncc(-c2ccc(C(=O)N3CCC(N4CCCC4)CC3)cc2)cc1OCC1=C(Cl)SNN1`, the inhibition at 1 pM stood at 19%.

With `Nc1ncc(-c2ccc(C(=O)N3CCC(N4CCCC4)CC3)cc2)cc1OCc1nc(N)c2ccccc2n1`, the inhibition at 1 pM was 15%. As for `Cc1nc(COc2cc(-c3ccc(C(=O)N4CCC(N5CCCC5)CC4)cc3)cnc2N)cs1`, the inhibition at 1 pM is 6%. For the compound `Nc1ncc(-c2ccc(C(=O)N3CCC(N4CCCC4)CC3)cc2)cc1OCc1cn2ccccc2n1`, the inhibition at 1 pM worked out at 11%.

Still in this assay, the particulars now being: at 50 nM; Table 5, library procedure 40; read-out: % inhibition (percent c-MET inhibition).
Take `CC1CCC(NC(=O)c2ccc(-c3cnc(N)c(OC(C)c4c(Cl)ccc(F)c4Cl)c3)cc2)CC1` [Example L-139]: the inhibition at 0.05 µM amounted to 60%. For `CC(Oc1cc(-c2ccc(C(=O)NCCc3ccc(O)cc3)cc2)cnc1N)c1c(Cl)ccc(F)c1Cl` [Example L-61], the inhibition at 0.05 µM was found to be 71%. Turning to `CC(CN(C)C)NC(=O)c1ccc(-c2cnc(N)c(OC(C)c3c(Cl)ccc(F)c3Cl)c2)cc1` [Example L-138], the inhibition at 0.05 µM is 83%.

`COc1cc(CNC(=O)c2ccc(-c3cnc(N)c(OC(C)c4c(Cl)ccc(F)c4Cl)c3)cc2)ccc1O` [Example L-22]: the inhibition at 0.05 µM is 64%.

Turning to `CC(Oc1cc(-c2ccc(C(=O)NCCc3c(Cl)cccc3Cl)cc2)cnc1N)c1c(Cl)ccc(F)c1Cl` [Example L-75], the inhibition at 0.05 µM was found to be 53%. As for `CCCN1CCN(C(=O)c2ccc(-c3cnc(N)c(OC(C)c4c(Cl)ccc(F)c4Cl)c3)cc2)CC1` [Example L-129], the inhibition at 0.05 µM was found to be 82%. The same measure, in the same setting: next, `CC(Oc1cc(-c2ccc(C(=O)NCCCN3CCCC3)cc2)cnc1N)c1c(Cl)ccc(F)c1Cl` [Example L-88]: 90%.

Still in this assay, the particulars now being: at 1 μM; Table 8, library procedure 43; read-out: % Inhibition (percent c-MET inhibition).
As for `CC1CN(C(=O)c2ccc(-c3cnc(N)c(OCc4cc(F)cc(F)c4)c3)cc2)CC(C)N1` (stereo not drawn), the inhibition at 1 µM was 12%. On the same count and under the same terms, with `CC1CN(C(=O)c2ccc(-c3cnc(N)c(OCc4ccc(C(=O)c5ccccc5)cc4)c3)cc2)CC(C)N1` (stereo not drawn) the figure was 35%; with `CC1CN(C(=O)c2ccc(-c3cnc(N)c(OCc4nc(CS(=O)(=O)c5ccccn5)no4)c3)cc2)CC(C)N1` (stereo not drawn), 16%.

For the compound `CC1CN(C(=O)c2ccc(-c3cnc(N)c(OCc4c(-c5ccccc5)nn(C)c4Cl)c3)cc2)CC(C)N1` (stereo not drawn), the inhibition at 1 µM was found to be 18%. As for `CC1CN(C(=O)c2ccc(-c3cnc(N)c(OCc4cc(Br)cc(Br)c4)c3)cc2)CC(C)N1` (stereo not drawn), the inhibition at 1 µM was 42%. In the case of `CC1CN(C(=O)c2ccc(-c3cnc(N)c(OCc4ccc(C(=O)NCCc5ccccn5)cc4)c3)cc2)CC(C)N1` (stereo not drawn), the inhibition at 1 µM was 19%.

The values above are taken from patent US20050009840A1 (SUGEN, INC., priority 2003, published 2005).
